Data from patent US4877790A, “Quinazoline derivative, processes for its production, and cerebral dysfunction remedying agent comprising it as active ingredient” (Kanebo Limited, priority 1987, dated 1989).
Structures can show the parent of a compound that is named as a salt.

Assays:
[1] = system: formation of lipid peroxide by autoxidation (brain homogenate); experiment: Lipid peroxide formation inhibiting activity (antioxidant activity), MDA in brain homogenate; format: biochemical, rats; conditions: for Antioxidant activity (percent inhibition of autoxidation): 37° C. 30 minutes, n = 4, mean ± standard error
Experimental: Lipid peroxide formation inhibiting activity (antioxidant activity):
The effect of the test compound on the formation of lipid peroxide by autoxidation was determined by the amount of malondialdehyde (MDA) formed.
Rats were decapitated, and the cerebrum was taken out and homogenized with 4 ml, per gram of the cerebrum, of 50 mM phosphate saline-buffer (pH 7.4) and centrifuged (2800 rpm, 10 minutes). The supernatant was taken into a 10 ml test tube to obtain a brain homogenate. It was frozen at -70° C. and stored.
The brain homogenate was defrozen, and immediately then, diluted to 10-fold with the aforesaid phosphate saline-buffer. A 2 ml portion of the dilution was taken into a 10 ml test tube cooled with ice, and used to measure its antioxidant activity. Twenty microliters of an aqueous solution of the compound of this invention (dihydrochloride) was added. The amount of MDA immediately after the addition was measured as shown below (MDA0 time). The mixture was incubated at 37° C. for 30 minutes. […] After cooling with ice, the cooled mixture was centrifuged (2800 rpm, 10 minutes). To 1 ml of the supernatant, 0.5 ml of 0.5 % thiobarbituric acid solution dissolved in 50% acetic acid solution was added, and the mixture was heated at 100° C. for 15 minutes. After cooling with ice, the absorbance of the solution at 532 nm was measured, and the amount of MDA formed was determined (MDA test).
As a control, the amount of MDA (MDAcont) was determined as above.
The antioxidant activity of the compound of the invention was expressed in terms of percent inhibition of autoxidation on the brain homogenate. The calculation was based on the following equation. [formula]

[2] = system: deficit of memory induced by scopolamine hydrobromide, male mice of the ddY strain; experiment: Anti-scopolamine-induced amnesia activity (one-trial passive avoidance response); format: in vivo; conditions: i.p. and p.o., Table 5
Experimental: Anti-scopolamine-induced amnesia activity:
Male mice of the ddY strain (body weight 20-25g, 20 per group) were used, and the activity of the test compound on deficit of memory induced by scopolamine hydrobromide (a muscarinic acetylcholine receptor antagonist) was examined using one-trial passive avoidance response as an index.
Using the same experimental device as in Test Example 1, the same acquisition trial and retrieval trial as in Test Example 1 were carried out (one-trial passive avoidance response.)
Scopolamine hydrobromide (1 mg/kg) was intraperitoneally (i.p.) administered to the animals 20 minutes before the acquisition trial. The compound of the invention (dihydrochloride) was dissolved in 1 % gum arabic solution, and intraperitoneally adminstered immediately after the acquisition trial, and orally (p.o.) administered 60 minutes before the acquisition trial.
A 1% solution of gum arabic was administered to the control group.

[3] = system: carbon dioxide-induced amnesia, male mice of the ddY strain; experiment: Anti-CO2-induced amnesia activity (one-trial passive avoidance response); format: in vivo; conditions: oral, Table 1
Experimental: Anti-CO2 -induced amnesia activity (the activity of remedying hypoxia-induced deficits in learning and memory):
Male mice of the ddY strain (body weight 20-30 g, 30 per group) were used. Anti-CO2 -induced amnesia activity was determined by using one-trial passive avoidance response as an index.
The experimental device consisted of two compartments, one illuminated and the other dark, with a guillotine door in the boundary of the two compartments permitting free passage of the mice through it.
In an acquisition trial, a mouse was placed in the illuminated compartment and allowed to enter the dark one. As soon as the mouse entered the dark compartment, the door was shut, and an electrical shock (0.5 mA, 0.2 sec.) was applied through the grid floor. Thus, the mouse was caused to learn that it receives an electric shock upon entering the dark room. In a retrieval trial, the mouse was again placed in the illuminated compartment 24 hours after the acquisition trial, and the time elapsed until it entered the dark compartment (response latency) was measured to an extent of 300 seconds at the longest. (One-trial passive avoidance response). […]

[4] = system: complete ischemia by decapitation, male mice of the ddY strain; experiment: Anti-hypoxic activity: brain protection against complete ischemia by decapitation (gasping persistent time); format: in vivo; conditions: oral, Table 2
Experimental: (1) Brain protection against complete ischemia by decapitation:
Male mice of the ddY strain (body weight 20-25 g, 5 per group) were orally given the compound of the invention (dihydrochloride) dissolved in 1% gum arabic solution. One hour later, the mice were decapitated, and the time elapsed until a gasping-like mouth opening movement appearing after decapitation ceased (gasping persistent time) was measured, and compared with that obtained with the control group (the group to which 1% gum arabic solution was administered.

[5] = system: normobaric hypoxia, male mice of the ddY strain; experiment: Anti-hypoxic activity: brain protection against normobaric hypoxia (survival time); format: in vivo; conditions: oral, Table 3
Experimental: (2) Brain protection against normobaric hydpoxia
Male mice of the ddY strain (body weight 20-25g, 5 per group) were orally administered with the compound of the invention (dihydrochloride) dissolved in a 1% gum arabic solution. One hour after the adminstration, the mouse was put in a transparent plastic container (capacity 27 liters) through which 100% nitrogen was passed at a rate of 80 liters/min. The time elasped until the animal died (the survival time) was measured, and compared with that obtained with the control group (the group to which 1% gum arabic solution was administered).

SMILES: C=CCN1CCN(c2nc(OCCCCC)c3ccccc3n2)CC1 [Compound of the invention (2HCl), 2-(4-allyl-l-piperazinyl)-4-pentyloxyquinazoline dihydrochloride]
- Antioxidant activity (percent inhibition of autoxidation) ([1]; 10 μM): 6.4 ± 7.7%
- Antioxidant activity (percent inhibition of autoxidation) ([1]; 30 μM): 27.1 ± 6.8%
- Antioxidant activity (percent inhibition of autoxidation) ([1]; 100 μM): 77.9 ± 3.1%
- Antioxidant activity (percent inhibition of autoxidation) ([1]; 300 μM): 93.4 ± 2.2%
- activity of inhibiting formation of lipid peroxide (antioxidant activity) (in words) ([1]; Table 4): showed the activity of inhibiting formation of lipid peroxide
- anti-scopolamine-induced amnesia activity (in words) [2]: showed a significant anti-scopolamine-induced amnesia activity
- anti-carbon dioxide induced amnesia activity (in words) [3]: showed a significant anti-carbon dioxide induced amnesia activity
- activity of prolonging the gasping persistent time (in words) [4]: showed a significant activity of prolonging the gasping persistent time
- activity of prolonging the survival time (in words) [5]: showed a significant activity of prolonging the survival time
